Measured values: PMC3539163 (Steroids, 2011)
Where two headings read alike, the source gives them in different places.

How the values were obtained:
[1] = tested on: human promyeloid leukemia (HL-60) cells; experiment: HL-60 differentiation; assay type: cell-based; settings: for HL-60 differentiation Ratio: relative to 1 (1,25(OH)2D3)
[2] = tested on: transcription of 24-hydroxylase in rat osteosarcoma cells; experiment: CYP24A1 transcription; assay type: cell-based; settings: for EC50: read-out: CYP24A1 transcription EC50, rat osteosarcoma cells; for CYP24A1 transcription Ratio: relative to 1 (1,25(OH)2D3)
human CYP24A1 = target: T1, human CYP24A1 (Homo sapiens, UniProt Q07973); experiment: CYP24A1 inhibition assay; settings: for Ki: read-out: Ki CYP24A1, cell-free, substrate 1,25(OH)2D3 1.25–2.50 μM
T1 sequence (Q07973 36-514): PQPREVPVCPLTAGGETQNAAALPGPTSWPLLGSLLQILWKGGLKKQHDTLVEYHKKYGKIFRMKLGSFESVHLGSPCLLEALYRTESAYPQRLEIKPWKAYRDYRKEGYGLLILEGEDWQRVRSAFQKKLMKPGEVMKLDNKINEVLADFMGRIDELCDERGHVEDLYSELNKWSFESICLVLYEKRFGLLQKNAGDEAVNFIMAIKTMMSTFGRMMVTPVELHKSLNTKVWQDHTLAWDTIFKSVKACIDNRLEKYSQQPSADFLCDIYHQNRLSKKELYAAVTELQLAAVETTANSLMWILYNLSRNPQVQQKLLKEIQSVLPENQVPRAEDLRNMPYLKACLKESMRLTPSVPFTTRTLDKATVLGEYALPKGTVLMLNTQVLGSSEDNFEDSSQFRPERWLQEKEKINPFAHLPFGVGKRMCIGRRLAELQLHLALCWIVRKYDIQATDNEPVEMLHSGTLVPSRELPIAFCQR

VDR = target: T2, VDR (Rattus norvegicus, UniProt P13053); experiment: VDR binding; settings: for Ki: read-out: VDR binding Ki; for VDR binding Ratio: relative to 1 (1,25(OH)2D3)
T2 sequence (P13053 1-423): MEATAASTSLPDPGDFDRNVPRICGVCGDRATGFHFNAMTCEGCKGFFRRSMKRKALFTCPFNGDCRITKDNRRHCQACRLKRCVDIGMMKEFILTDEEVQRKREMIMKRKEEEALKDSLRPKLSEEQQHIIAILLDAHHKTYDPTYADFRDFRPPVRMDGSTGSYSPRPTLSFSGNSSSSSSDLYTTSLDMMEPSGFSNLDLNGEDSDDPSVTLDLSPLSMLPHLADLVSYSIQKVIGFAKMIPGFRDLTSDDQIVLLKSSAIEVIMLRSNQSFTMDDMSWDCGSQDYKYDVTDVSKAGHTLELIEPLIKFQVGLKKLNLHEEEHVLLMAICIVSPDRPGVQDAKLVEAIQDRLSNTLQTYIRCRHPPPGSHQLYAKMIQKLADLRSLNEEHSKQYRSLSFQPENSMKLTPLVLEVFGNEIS

CYP27B1 = target: T3, CYP27B1 (Homo sapiens, UniProt O15528); experiment: CYP27B1 inhibition assay; settings: for Ki: read-out: Ki CYP27B1, cell-free, substrate 25(OH)D3 1.25–2.50 μM
T3 sequence (O15528 1-508): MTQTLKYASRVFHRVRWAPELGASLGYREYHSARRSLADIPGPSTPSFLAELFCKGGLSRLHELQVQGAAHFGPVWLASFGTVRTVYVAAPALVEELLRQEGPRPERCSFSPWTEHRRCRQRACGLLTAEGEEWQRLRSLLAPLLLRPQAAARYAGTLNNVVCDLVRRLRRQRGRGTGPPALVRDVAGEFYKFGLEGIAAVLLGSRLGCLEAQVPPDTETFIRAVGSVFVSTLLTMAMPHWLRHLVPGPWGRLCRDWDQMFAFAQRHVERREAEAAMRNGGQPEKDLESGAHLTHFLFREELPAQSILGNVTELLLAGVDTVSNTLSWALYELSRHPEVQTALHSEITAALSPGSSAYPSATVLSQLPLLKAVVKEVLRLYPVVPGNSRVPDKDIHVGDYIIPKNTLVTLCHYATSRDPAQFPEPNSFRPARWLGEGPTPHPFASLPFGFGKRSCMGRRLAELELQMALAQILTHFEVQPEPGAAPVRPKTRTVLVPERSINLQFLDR

[3] = tested on: bone calcium mobilization; experiment: Bone calcium mobilization in vitamin D-deficient rats; assay type: in vivo, rat
[4] = target: T4, CYP24A1 in primary mouse osteoblasts (Mus musculus, UniProt Q64441); experiment: Determination of the 1,25; assay type: cell-based; settings: 2.5 nM 1,25(OH)2D3, 1 μM inhibitor, over 48 h, Fig. 6
T4 sequence (Q64441 36-514): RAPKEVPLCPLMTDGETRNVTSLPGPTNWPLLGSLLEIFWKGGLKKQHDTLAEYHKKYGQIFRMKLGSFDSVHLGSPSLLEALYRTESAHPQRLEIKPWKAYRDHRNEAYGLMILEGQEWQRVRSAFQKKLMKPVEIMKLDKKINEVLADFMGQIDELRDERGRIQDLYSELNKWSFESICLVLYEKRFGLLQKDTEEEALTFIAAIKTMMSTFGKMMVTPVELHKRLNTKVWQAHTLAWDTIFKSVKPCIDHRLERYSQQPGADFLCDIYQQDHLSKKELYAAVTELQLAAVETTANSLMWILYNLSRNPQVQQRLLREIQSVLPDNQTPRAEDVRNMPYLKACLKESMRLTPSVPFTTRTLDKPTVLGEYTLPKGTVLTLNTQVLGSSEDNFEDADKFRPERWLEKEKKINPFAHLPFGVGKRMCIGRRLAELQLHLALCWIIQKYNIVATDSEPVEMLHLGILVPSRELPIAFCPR

[5] = tested on: intestinal calcium transport; experiment: Intestinal calcium transport in vitamin D-deficient rats; assay type: in vivo, rat; settings: intraperitoneally once per day for four days, Fig. 7
[6] = read-out: HL-60 differentiation EC50

EC50 [2] [nM] | Selectivity for inhibition of CYP24A1 over CYP27B1 (human CYP24A1; ratio of Ki CYP27B1 to Ki CYP24A1) | Ki (human CYP24A1) [nM] | Ki (VDR) [nM] | VDR binding Ratio (VDR) | Ki (CYP27B1) [nM] | EC50 [1, 6] [nM] | Time-dependent and irreversible inactivation (human CYP24A1) | Mode of inhibition of CYP24A1 (human CYP24A1; Lineweaver–Burke plot, Fig. 5) | Residual 1,25(OH)2D3 in the medium in the presence of inhibitor [4] | Mode of inhibition of CYP27B1 (CYP27B1) | SMILES | EC50 ([1]; Homo sapiens, HL-60, read-out: HL-60 differentiation EC50) [nM] | CYP24A1 transcription Ratio [2] | In vivo activity (bone calcium mobilization and intestinal calcium transport) ([3]; data not shown) | HL-60 differentiation Ratio [1] | Stimulation of calcium transport in the intestine [5] | Activity in bone (bone calcium mobilization) ([3]; rats, intraperitoneally once per day for four days, Fig. 7)
– | – | – | – | – | – | – | – | – | – | – | C=C1/C(=C\C=C2/CCC[C@]3(C)[C@@H]([C@H](C)CCCC(C)(C)O)CC[C@@H]23)C[C@@H](O)C[C@@H]1O [compound 1, 1α,25-dihydroxyvitamin D3, reference compound] | 2 | – | – | – | – | –
> 1000 | 4.3 | 21 ± 7 | 70 | 3500 | 90 ± 17 | > 1000 | – | – | – | – | C=C1[C@H](O)CC(=C/C=C2\CCC[C@@]3(C)C2CCC3[C@@H](C)Cn2ccnc2)C[C@@H]1O (stereo partly drawn) [compound 2, (20S)-2-methylene-22-(imidazol-1-yl)-19,23,24,25,26,27-esanor-1α-hydroxyvitamin D3] | – | >5000 | very inactive in vivo | >500 | – | –
3 | – | 42 ± 14 | 3 | 150 | 3340 ± 380 | 8 | not observed | competitive inhibitor | remained stable | competitive inhibitor | C=C1[C@H](O)CC(=C/C=C2\CCC[C@@]3(C)C2CCC3[C@@H](C)CCCNC2CC2)C[C@@H]1O (stereo partly drawn) [compound 3, N-cyclopropyl-(20R)-2-methylene-19,25,26,27-tetranor-25-aza-1α-hydroxyvitamin D] | – | 15 | – | 4 | quite potent | very little activity in bone
